According to PubChem BioAssay AID1963836 (Molecular Pharmacology Branch, DTP, NCI, 2024):
pIC50: −log10 of the molar value.

Test system: 857933-349-R-J2-PDC complex spheroid viability
Test: Anticancer human tumor 857933-349-R-J2-PDC patient-derived colon adenocarcinoma cell line growth inhibition [POLQ]
Conditions: for pIC50: curve of first compound; for viability, T/C: stronger effect = lower value
Experimental: Multicellular complex tumor spheroid response to Polymerase (POL) inhibitors (novobiocin, ART-558, RP6685) in combination with a variety of drugs and investigational agents in selected tumor cell lines
The POL inhibitors (novobiocin, ART-558, and RP6685) were evaluated both individually and in combination with standard of care and investigational anticancer small molecules within a complex spheroid model of solid tumors. . Complex spheroids include a stromal component modeled by human endothelial cells (HUVEC) and fibroblasts modeled by human mesenchymal stem cells (MSCs). The concentration ranges selected for each drug and investigational agent were based upon clinically achievable concentrations if the clinical Cmax of the agent was known.
Compounds. The drugs and investigational agents: novobiocin (NSC847541), ART-558 (NSC835418), RP-6685 (NSC848927), peposertib (NSC802822), ceralasertib (NSC780249), elimusertib (NSC800525), camonsertib (NSC841442), AZD-1390 (NSC803789), olaparib (NSC753686), talazoparib (NSC767125), rucaparib (NSC756644), sotorasib (NSC818433), MRTX-1133 (NSC836407), SN-38 (NSC673596), topotecan (NSC609699), epotoside (NSC141540), doxorubicin (NSC123127), gemcitabine (NSC613327), 5-fluorouracil (NSC19893), paclitaxel (NSC125973), vemurafenib (NSC761431), MSA-2 (NSC828583), SN-011 (NSC837082), adavosertib (NSC754352), prexasertib (NSC758257), carboplatin (NSC241240) and oxaliplatin (NSC266046), were obtained from the National Cancer Institute (NCI) Developmental Therapeutics Program Chemical Repository (21). The FDA-approved anticancer drug set is available from the Developmental Therapeutics Program at https://dtp.cancer.gov/organization/dscb/obtaining/. […] The stock solutions were prepared in dimethyl sulfoxide (DMSO, Sigma-Aldrich, St. Louis, MO, cat. D2650), except for the platinum compounds which were prepared in saline (Quality Biological, Gaithersburg, MD, cat. 114-055-101), at 800-fold the tested concentration and stored at -70 degrees C prior to their use. All drugs and investigational agents were tested over a range starting from a high concentration at or near the clinical Cmax and decreasing in half-log increments. If the clinical Cmax for an agent had not been determined, the highest concentration tested was 10 microM, except for SN-38, which was tested at a high concentration of 1 microM.
Cell Culture. All cells were maintained in an incubator at 37 degrees C and 5% CO2 with 95% humidity. The PDC lines were cultured according to standard operating procedures established by the NCI PDMR (https://pdmr.cancer.gov). Table 3 of the manuscript, lists the cell lines along with the number of the three cell types plated to form the mct-spheroids and media for tumor cell growth. After thawing, all PDC lines, except 997537-175-T-J1-PDC and 415267-285-R-J2-PDC, were cultured in Matrigel-coated flasks prepared with a working solution of 1X Ham's F-12 nutrient mix, without supplementation (Thermo Fisher Scientific, cat. 11765054), 100 U/mL penicillin-streptomycin (Thermo Fisher Scientific, cat. 15140122), and 2.5% Matrigel (Corning Inc., Corning, NY, cat. 354248) for the first three passages. The two PDC lines 997537-175-T-J1-PDC and 415267-285-R-J2-PDC were cultured on uncoated flasks. The 857933-349-R-J2-PDC line was cultured in 6C/Colon 1B media containing advanced DMEM/F-12 (Thermo Fisher Scientific, cat. 12634028), 10 mM HEPES (Thermo Fisher Scientific, cat. 15630080), 1X GlutaMAX supplement (Thermo Fisher Scientific, cat. 35050061), 0.1 mg/mL primocin (InvivoGen, San Diego, CA, cat. ant-pm-2), 10% defined fetal bovine serum, heat inactivated (HyClone Laboratories Inc., Logan, UT, cat. SH30070.03HI), 50% L-WRN conditioned media (ATCC, cat. CRL-3276), 1.25 mM N-Acetyl-L-cysteine (Sigma-Aldrich, cat. A9165), 10 mM nicotinamide (Sigma-Aldrich, cat. N0636), 1X B-27 supplement (Thermo Fisher Scientific, cat. 17504044), 1X N-2 supplement (Thermo Fisher Scientific, cat. […]
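Also: spheroids exposed to compounds for seven days before readout.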

Work on `CC[C@@]1(O)C(=O)OCc2c1cc1n(c2=O)Cc2cc3c(CN(C)C)c(O)ccc3nc2-1` + Cc1cccc(N(C)C(=O)C2C(O)CCN2c2nc(C)cc(C(F)(F)F)c2C#N)c1 yielded a pIC50 (second compound 0.0316 µM) of 7.19, a pIC50 (second compound 0.1 µM) of 7.00 and a pIC50 (second compound 0.316 µM) of 7.16. It also gave a pIC50 (second compound 1 µM) of 7.14, a pIC50 (second compound 3.16 µM) of 7.01 and a pIC50 (second compound 10 µM) of 7.72. For the same molecule, the viability, T/C (second compound 0.0316 µM, first compound 0.000316 µM) was 98.7%, the viability, T/C (second compound 0.0316 µM, first compound 0.001 µM) was 102% and the viability, T/C (second compound 0.0316 µM, first compound 0.00316 µM) was 92.8%. The viability, T/C (second compound 0.0316 µM, first compound 0.01 µM) was 80.6%, the viability, T/C (second compound 0.0316 µM, first compound 0.0316 µM) was 61.8% and the viability, T/C (second compound 0.0316 µM, first compound 0.1 µM) was 43.1%. For the same molecule, the viability, T/C (second compound 0.1 µM, first compound 0.000316 µM) was 106%, the viability, T/C (second compound 0.1 µM, first compound 0.001 µM) was 94.5% and the viability, T/C (second compound 0.1 µM, first compound 0.00316 µM) was 88.4%. It also gave a viability, T/C (second compound 0.1 µM, first compound 0.01 µM) of 92.3%, a viability, T/C (second compound 0.1 µM, first compound 0.0316 µM) of 73.6% and a viability, T/C (second compound 0.1 µM, first compound 0.1 µM) of 49.3%. For the same molecule, the viability, T/C (second compound 0.316 µM, first compound 0.000316 µM) was 76.4%, the viability, T/C (second compound 0.316 µM, first compound 0.001 µM) was 108% and the viability, T/C (second compound 0.316 µM, first compound 0.00316 µM) was 91.4%. It also gave a viability, T/C (second compound 0.316 µM, first compound 0.01 µM) of 78%, a viability, T/C (second compound 0.316 µM, first compound 0.0316 µM) of 76.2% and a viability, T/C (second compound 0.316 µM, first compound 0.1 µM) of 38.7%. It also gave a viability, T/C (second compound 1 µM, first compound 0.000316 µM) of 98.8%, a viability, T/C (second compound 1 µM, first compound 0.001 µM) of 75.8% and a viability, T/C (second compound 1 µM, first compound 0.00316 µM) of 83.8%. The viability, T/C (second compound 1 µM, first compound 0.01 µM) was 73.4%, the viability, T/C (second compound 1 µM, first compound 0.0316 µM) was 76.6% and the viability, T/C (second compound 1 µM, first compound 0.1 µM) was 40.7%. It also gave a viability, T/C (second compound 3.16 µM, first compound 0.000316 µM) of 95.7%, a viability, T/C (second compound 3.16 µM, first compound 0.001 µM) of 79.3% and a viability, T/C (second compound 3.16 µM, first compound 0.00316 µM) of 77.9%. It also gave a viability, T/C (second compound 3.16 µM, first compound 0.01 µM) of 74.1%, a viability, T/C (second compound 3.16 µM, first compound 0.0316 µM) of 69.4% and a viability, T/C (second compound 3.16 µM, first compound 0.1 µM) of 46%. For the same molecule, the viability, T/C (second compound 10 µM, first compound 0.000316 µM) was 77.9%, the viability, T/C (second compound 10 µM, first compound 0.001 µM) was 92.3% and the viability, T/C (second compound 10 µM, first compound 0.00316 µM) was 85.2%. It also gave a viability, T/C (second compound 10 µM, first compound 0.01 µM) of 56.6%, a viability, T/C (second compound 10 µM, first compound 0.0316 µM) of 50.6% and a viability, T/C (second compound 10 µM, first compound 0.1 µM) of 37.9%.
